# In paper PMC9147192, “Small Molecule Arranged Thermal Proximity Coaggregation (smarTPCA)—A Novel Approach to Characterize Protein–Protein Interactions in Living Cells by Similar Isothermal Dose–Responses” (International Journal of Molecular Sciences, 2022):
# pEC50: −log10 of the molar value.
# Biological target: T1, OGDH (Homo sapiens, UniProt Q02218)
# T1 construct: endogenous in cells; host or cells: HL-60 (ATCC CCL-240)
# T1 sequence (Q02218 41-1023): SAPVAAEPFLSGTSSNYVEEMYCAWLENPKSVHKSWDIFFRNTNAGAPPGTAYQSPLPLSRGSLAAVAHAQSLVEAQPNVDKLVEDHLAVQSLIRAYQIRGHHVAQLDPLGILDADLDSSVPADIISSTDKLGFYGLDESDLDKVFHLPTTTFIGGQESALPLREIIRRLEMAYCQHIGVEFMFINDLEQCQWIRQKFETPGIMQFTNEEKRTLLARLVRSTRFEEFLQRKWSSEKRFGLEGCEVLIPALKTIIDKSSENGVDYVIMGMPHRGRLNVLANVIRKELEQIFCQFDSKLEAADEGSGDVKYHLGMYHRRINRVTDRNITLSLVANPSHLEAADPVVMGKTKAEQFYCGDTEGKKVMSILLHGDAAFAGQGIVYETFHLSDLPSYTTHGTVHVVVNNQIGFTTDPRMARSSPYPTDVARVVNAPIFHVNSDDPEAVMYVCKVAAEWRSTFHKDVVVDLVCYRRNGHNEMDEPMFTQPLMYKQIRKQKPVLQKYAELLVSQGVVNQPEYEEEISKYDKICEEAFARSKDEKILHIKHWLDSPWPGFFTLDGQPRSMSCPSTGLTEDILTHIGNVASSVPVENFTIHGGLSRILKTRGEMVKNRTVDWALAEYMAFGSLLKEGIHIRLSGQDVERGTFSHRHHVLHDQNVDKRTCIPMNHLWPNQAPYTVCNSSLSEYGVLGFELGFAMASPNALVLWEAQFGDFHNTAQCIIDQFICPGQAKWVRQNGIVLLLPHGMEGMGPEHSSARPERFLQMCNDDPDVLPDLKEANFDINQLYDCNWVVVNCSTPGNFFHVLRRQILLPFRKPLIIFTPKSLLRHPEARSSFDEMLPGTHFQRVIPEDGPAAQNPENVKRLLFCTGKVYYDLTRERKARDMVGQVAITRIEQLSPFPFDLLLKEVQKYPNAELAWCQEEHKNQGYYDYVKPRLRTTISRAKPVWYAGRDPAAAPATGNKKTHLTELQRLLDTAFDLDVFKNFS
# Assay: TPP-CCR in living HL-60 cells
# Assay type: cell-based
# [1] = living HL-60 cells, […] °C, TMT-MS
compound,measurement,setting,value
Cc1cnc(Nc2ccc(F)cc2Cl)nc1-c1c[nH]c(C(=O)N[C@H](CO)c2cccc(Cl)c2)c1 [ERK 11e],Hill slope,"TPP-CCR, living cells, OGDH",0.43
same,pEC50,[1],6.38
same,Hill slope (OGDH),[1],0.43
